Like-named read-outs stand apart in the source and are kept apart here. Marks after values point to notes of the source that are not given here.
Key:
[1] = system: NNK/B(a)P-induced lung adenomas and adenocarcinomas; conditions: for Adenocarcinoma Incidence (%) / Adenocarcinoma Multiplicity mean ± SD / Adenoma Incidence (%) / Adenoma Multiplicity mean ± SD: preliminary
Procedure: The test compounds were given in the diet on week 21 after beginning of a weekly dose of a mixture of NNK/B(a)P: 3 μmol each (621 μg NNK and 756 μg B(a)P) in 0.1 ml cottonseed oil for eight weeks (a total of 8 doses) (groups 1 to 10); only vehicle (cottonseed oil) for groups 11 to 15. Animals were then given experimental diet for 20 weeks until week 40. Four mice in groups 1, 2, 4, 6, 8, and 10 (see Table 1) were sacrificed on weeks 20, 38, and 40. The bioassay was terminated on week 52. If sufficient numbers of tumors were developed in mice killed on week 40, the bioassay was terminated at week 40. Tumors (adenomas and carcinomas) were quantified by multiplicity and incidence. At sacrifice, livers and lungs were harvested and the tissues rinsed in autoclaved PBS, stored in labeled foil, and snap frozen in liquid nitrogen. These tissues both tumorous and non-tumorous were processed by histology for biomarker studies (TUNEL, PCNA,p53, […] kinases, etc.). Lungs were examined by histology at termination (52 week or 40 week) for adenomas and carcinomas).
In this study, the potential protective effects of ITCs and ITC-NACs against progression of lung adenomas to malignant tumors were investigated. Lung tumors were induced in A/J mice with 3 μmol B(a)P plus 3 μmol NNK (gavage once/wk, 8 wks); mice were maintained on AIN-76A semi-purified diets. […] Diets containing PEITC (phenethyl ITC) or SFN (sulforaphane), each at 3 mmol/kg and 1.5 mmol/kg diet; PEITC-NAC or SFN-NAC at 8 mmol/kg and 4 mmol/kg diet; and NAC at 8 mmol/kg diet were then provided to groups of 28 mice (high dose) or 20 mice (low dose) during weeks 20 to 40 after initiation. Four mice in each high dose treatment group were killed during weeks 28 and 40 to monitor tumor incidence and progression; lung tissues were used for molecular studies. Remaining mice were killed at 40 weeks for histopathological examination. […] To assess molecular events occurring during the treatments, lung RNA of mice treated with B(a)P+NNK/control diet and B(a)P+NNK/PEITC-NAC high dose diet was examined using a Mouse Cancer Pathway Finder Gene Array.

[2] = system: A549/c-jun cells; assay: Apoptosis in A549/c-jun transfectants (morphology, DNA fragmentation, annexin V, PARP Western blot); assay type: cell-based, human; conditions: 25 μM
[3] = system: A549 cells; assay: Flow cytometry cell cycle analysis / survival of A549 cells; assay type: cell-based, human
Procedure: Cell Lines: The human lung adenocarcinoma cell line A549 was obtained from the American Type Culture Collection (ATCC) (Bethesda, Md.). […] Cells were grown at 37° C. with 5% CO2.
Reagents: The PEITC was obtained from Aldrich (Milwaukee, Wis.) and its N-acetylcysteine conjugate was synthesized in house by the Organic Synthesis Facility using the method described previously (Kassahun et al., Chem Res Toxicol 1997, 10(11):1228-33). Unless specified otherwise, the A549 cells were treated with 10 or 25 μM of PEITC-NAC. TPA (12-O-tetradecanoylphorbol-13-acetate) was purchased from Sigma (St. Louis, Mo.).
Cell cycle analysis: A549 cells were harvested following 16 and 24 h treatment with various concentrations of PEITC-NAC by fixation in 70% ethanol. Cellular DNA was determined following staining with 1 μg/ml of 4,6-diamidino-2-ephynylindole (DAPI, Molecular Probes, Eugene, Oreg.) dissolved in PBS. Cellular blue fluorescence was measured using the Elite ESP flow cytometer/cell sorter (Coulter, Miami, Fla.) following excitation with a Ni/Cad UV light emitting laser. The data were collected and DNA histograms were deconvoluted using Multicycle software (Phoenix Flow Systems, San Diego, Calif.).

[4] = system: B(a)P-induced lung adenoma; assay: Tumor bioassay: B(a)P-induced lung tumorigenesis, ITC-NAC conjugates in diet during post-initiation phase
Procedure: The ITC conjugates were incorporated (15 μmol/g diet) into AIN-76A diets (5% corn oil) by mixing with dextrose prior to diet preparation. The conjugates, 9.36 g BITC-NAC (15 mmol) or 9.79 g PEITC-NAC (15 mmol), were dissolved in 50 ml ethyl acetate, and then mixed with 200 g dextrose to ensure even coating of dextrose particles. After mixing with dextrose, the solvent was removed using a rotary evaporator and further dried using a vacuum pump (2-3 h). Diets were prepared in 1-2 kg batches, and were stored at 4° C. in a container purged with nitrogen. […] Stability was determined by extraction of 0.5 g portions of the diet with 2.5 ml methanol (2×). The methanol extracts were combined and a 1 ml aliquot was filtered using a 0.47 μm syringe filter. A 10 μl sample was then analyzed on HPLC (Jiao, et al., Chem. Res. Toxicol., 9: 932-938, 1996).
Tumor Bioassay: Female strain A mice (Jackson Laboratories, Bar Harbor, Me.) of four weeks of age were housed under quarantine in polycarbonate cages (5 mice/cage) and provided modified AIN 76A diet (5% corn oil) and acidified drinking water ad libitum. The mice were maintained on a 12 h light: 12 h dark regimen at 22±5° C. and 50±20% relative humidity. After one week, the mice were weighed, and distributed into four groups containing 30 to 35 mice on the basis of body weight. At seven weeks of age, the mice in groups 1-3 were gavaged with a single dose of 20 μmol B(a)P in 0.2 ml cottonseed oil; group 4 received the vehicle only. Two days after dosing with the carcinogen, diets containing BITC-NAC (15 μmol/g, Group 2) and PEITC-NAC (15 μmol/g, Group 3) were provided. Groups 1 (B[a]P control) and 4 (vehicle only) remained on the modified AIN-76A diet with 5% corn oil. Tap water was provided ad libitum during the course of the bioassay. Mice were observed daily; diets were replenished on the fourth day of the week, and completely replaced on the seventh day. Mice were weighed weekly for four weeks, then monthly and at termination. At 84 days after B(a)P dosing, four mice per group were killed (CO2, cervical dislocation) to harvest lung tissues for molecular and immunohistochemical studies and to quantify lung adenomas, if present. At 140 days after B(a)P, the remaining mice in each group were killed. The number of lung tumors was recorded; lobes of lungs were placed in 10% phosphate buffered formalin for histological and immunohistochemical analysis. The remaining lung lobes were snap frozen in liquid nitrogen.
Mean tumor multiplicity and body weights at each time point were compared between groups using Student's T test.

[5] = high dose (3 or 8 mmol/kg diet)
[6] = low dose (1.5 or 4 mmol/kg diet)

CC(=O)N[C@@H](CSC(=S)NCCc1ccccc1)C(=O)O [PEITC-NAC, N-acetylcysteine Conjugate of phenethyl isothiocyanate]
incidence of adenocarcinoma/squamous carcinoma ([1]; 8 mmol/kg diet, initiated control group 60%): 20%
mean numbers of lung adenomas compared with carcinogen control mice ([1]; at termination): decreases were significant
Adenocarcinoma Incidence (%) [1, 5]: 5/31 (16.1%)
Adenocarcinoma Multiplicity mean ± SD [1, 5]: 0.52 ± 1.50
Adenoma Incidence (%) [1, 5]: 30/31 (96.8%)
Adenoma Multiplicity mean ± SD ([1]; high dose (PEITC, SFN 3 mmol/kg diet; PEITC-NAC, SFN-NAC, NAC 8 mmol/kg diet)): 8.19 ± 3.99
Adenocarcinoma Incidence (%) [1, 6]: 4/19 (21.05%)
Adenocarcinoma Multiplicity mean ± SD [1, 6]: 0.53 ± 1.14
Adenoma Incidence (%) [1, 6]: 17/19 (89.47%)
Adenoma Multiplicity mean ± SD ([1]; low dose (PEITC, SFN 1.5 mmol/kg diet; PEITC-NAC, SFN-NAC 4 mmol/kg diet)): 7.58 ± 3.88
malignant tumor multiplicity ([1]; low dose groups, initiated control group 2.1): 0.9 tumors/mouse
PARP 89 kD cleavage fragment ([2]; 3 h): the most evident cleavage
PARP protein ([2]; 24 h): maintained a significant levels of intact PARP protein
apoptosis compared with control-vector transfected cells ([2]; 24 h): enhanced apoptosis
cells undergoing apoptosis (sub-G1 peak) ([3]; 10 μM for 24 h): 4.5%
cell survival ([3]; 100 μM, 24 h): no lung cells appear to survive
tumor multiplicity ([4]; 15 μmol/g diet after B(a)P, at termination, B(a)P control 6.1±3.1): 3.4±2.7 tumors/mouse
Tumor Incidence (%), lung adenoma ([4]; 15 μmol/g diet from 2 days after 20 μmol B(a)P, 140 days): 89%
Tumor multiplicity (no. of tumors/mice), lung adenoma ([4]; 15 μmol/g diet from 2 days after 20 μmol B(a)P, 140 days, mean ± SD): 3.39 ± 2.71^b no. of tumors/mice
average body weight at termination ([4]; 15 μmol/g diet, controls 25.8 g and 25.7 g): 22.8 g
tumor reduction ([4]; versus B(a)P control diet group, at termination): 44%

From US20060241178A1, “Compositions and methods for treating lung cancer” (priority 2002, published 2006)
